Laboratory results as given in patent publication US11779551B1 (priority 2022, dated 2023).

How the values were obtained:
human lymphoblast cells [1] = test system: human lymphoblast cells
human lymphoblast cells [2] = type: cell-based

Row | Compound | effect on cytotoxicity of PbTx-2 (LDH activity) (human lymphoblast cells [1]) | reduction of PbTx-2 cytotoxicity (human lymphoblast cells [1]) | effect on redox state of the proteome (human lymphoblast cells [2])
1 | O=S(=O)(O)CCS [MESNA, sodium mercaptoethyl sulfonate] | significantly reduced cytotoxicity | approximately 50% | restored to control levels
2 | NCCS [cysteamine] | significantly reduced cytotoxicity | – | –
